Columns and labels:
Assay in all cases: relative viability (nuclei count vs DMSO), 5 days (fraction); higher = more cells survive
Zosuquidar + Navitoclax = compound: O[C@@H](COc1cccc2ncccc12)CN1CCN([C@@H]2c3ccccc3[C@@H]3[C@H](c4ccccc42)C3(F)F)CC1 [Zosuquidar] + CC1(C)CCC(c2ccc(Cl)cc2)=C(CN2CCN(c3ccc(C(=O)NS(=O)(=O)c4ccc(N[C@H](CCN5CCOCC5)CSc5ccccc5)c(S(=O)(=O)C(F)(F)F)c4)cc3)CC2)C1 [Navitoclax] (partner 0.5 µM)
Procedure, shortened: (§1)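 Each reported value is a median over duplicate plates. It expresses relative viability: treated-well nuclei count divided by vehicle-well nuclei count. Lung cancer cell lines in 1536-well plates were dosed by pin tool a day after seeding, alone with one drug or with a fixed anchor-drug dose plus five library-drug doses (not always all listed) in √10 steps, and nuclei were counted after 5 days.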

Zosuquidar + AZD7762 = compound: O[C@@H](COc1cccc2ncccc12)CN1CCN([C@@H]2c3ccccc3[C@@H]3[C@H](c4ccccc42)C3(F)F)CC1 [Zosuquidar] + NC(=O)Nc1cc(-c2cccc(F)c2)sc1C(=O)N[C@H]1CCCNC1 [AZD7762] (partner 0.2 µM)
Procedure, shortened: as §1

Kobe2602 + Palbociclib = compound: C1=CC(=CC=C1NC(=S)NNC2=C(C=C(C=C2[N+](=O)[O-])C(F)(F)F)[N+](=O)[O-])F [Kobe2602] + CC(=O)c1c(C)c2cnc(Nc3ccc(N4CCNCC4)cn3)nc2n(C2CCCC2)c1=O [Palbociclib] (partner 0.5 µM)
Procedure, shortened: as §1

[1] = compound: COc1cc2nccc(Oc3ccc(NC(=O)C4(C(=O)Nc5ccc(F)cc5)CC4)cc3)c2cc1OC [Cabozantinib] + Cc1cc(Nc2cc(N3CCN(C)CC3)nc(Sc3ccc(NC(=O)C4CC4)cc3)n2)n[nH]1 [Tozasertib] (partner 0.1 µM)
Procedure, shortened: as §1

Cell Line	relative viability (Zosuquidar + Navitoclax; first compound 0.01 µM)	relative viability (Zosuquidar + Navitoclax; first compound 0.03162 µM)	relative viability (Zosuquidar + Navitoclax; first compound 0.1 µM)	relative viability (Zosuquidar + Navitoclax; first compound 0.3162 µM)	relative viability (Zosuquidar + Navitoclax; first compound 1 µM)	relative viability (Zosuquidar + AZD7762; first compound 0.01 µM)	relative viability (Zosuquidar + AZD7762; first compound 0.03162 µM)	relative viability (Zosuquidar + AZD7762; first compound 0.1 µM)	relative viability (Zosuquidar + AZD7762; first compound 0.3162 µM)	relative viability (Zosuquidar + AZD7762; first compound 1 µM)	relative viability (Kobe2602 + Palbociclib; first compound 0.2 µM)	relative viability (Kobe2602 + Palbociclib; first compound 0.6325 µM)	relative viability (Kobe2602 + Palbociclib; first compound 2 µM)	relative viability (Kobe2602 + Palbociclib; first compound 6.325 µM)	relative viability (Kobe2602 + Palbociclib; first compound 20 µM)	relative viability ([1]; first compound 0.02 µM)	relative viability ([1]; first compound 0.06325 µM)	relative viability ([1]; first compound 0.6325 µM)	relative viability ([1]; first compound 2 µM)	relative viability ([1]; first compound 0.2 µM)
HCC-827	1.04	0.991	0.991	1.02	1.03	0.171	0.212	0.148	0.216	0.192	0.528	0.574	0.621	0.489	0.53	0.456	0.481	0.436	0.414	
HOP-62	0.825	1.13	0.939	0.924	0.975	0.619	0.771	0.512	0.802	0.631	0.442	0.499	0.419	0.456	0.485	0.398	0.388	0.376	0.346	0.378
LC-2-ad	0.452	0.607	0.407	0.534	0.406	0.78	0.855	0.883	0.842	0.787	0.466	0.514	0.533	0.506	0.484		0.454	0.456	0.392	0.46
LCLC-97TM1	0.448	0.396		0.496	0.412	0.214	0.345		0.25	0.2	0.192	0.242		0.218	0.194	0.288	0.27	0.217	0.282	0.252
LK-2	0.989	0.931	0.875	0.954	0.847	0.496	0.428	0.328	0.541	0.279	0.904	0.628	0.81	0.649	0.687		0.169	0.18	0.175	
LOU-NH91	0.624	0.695	0.571	0.739	0.68	0.761	0.807	0.637	0.793	0.74	0.475	0.5	0.537	0.526	0.529	0.677	0.729	0.724	0.75	
LU99A	0.783	0.819	0.79	0.91	0.73	0.257	0.413	0.355	0.418	0.375	0.424	0.488	0.411	0.473	0.451	0.27	0.245	0.255	0.224	0.258
LXF-289	0.934	0.957	0.911	0.952	1.02	1.13	1.18	1.07	1.12	1.14	0.585	0.597	0.59	0.556	0.62	0.206	0.198	0.218	0.208	0.171
NCI-H23	0.765	0.96	0.746	0.79	0.862	0.319		0.2	0.331	0.224	0.559	0.568	0.446	0.522	0.544		0.47	0.325	0.292	0.387
NCI-H322M	1.26	1.16	1.08	1.29	1.14	0.586	0.507	0.495	0.56	0.49	0.477	0.535	0.485	0.491	0.559	0.488	0.511	0.439	0.436	0.425
NCI-H441	0.748	0.496	0.615		0.59	0.991	1.33	1.09	1.23	1.19	0.236	0.198	0.243	0.237	0.221	0.646	0.72	0.509	0.649	0.673
NCI-H460	1.07	1.3	1.24	1.14	1.23	0.54	0.571	0.6	0.607	0.509		0.22	0.184	0.145	0.176	0.574	0.57	0.356	0.0953	0.447
NCI-H647	1.02	1.1	0.986	1.14	1.06	0.417	0.392	0.322	0.681	0.516	0.334	0.467	0.373	0.425	0.409	0.483	0.195	0.334	0.203	0.421
NCI-H727	0.426	0.528	0.328	0.454	0.391	0.502	0.573		0.714	0.405	0.665	0.703	0.635		0.704	0.53	0.777	0.513	0.554	0.513
NCI-H838	1.25	1.22	1.16	1.26	1.17	0.939	0.997	0.898	0.948	0.904	0.196	0.215	0.199	0.246	0.199	0.314	0.296	0.259	0.219	0.288
NCI-H1355	1.06	0.951	0.797	0.954	1	0.777	0.778	0.733	0.797	0.86	0.341	0.367	0.385	0.398	0.406	0.583	0.66	0.503	0.356	0.502

Cell Line	relative viability (Zosuquidar + Navitoclax; first compound 0.01 µM)	relative viability (Zosuquidar + Navitoclax; first compound 0.03162 µM)	relative viability (Zosuquidar + Navitoclax; first compound 0.1 µM)	relative viability (Zosuquidar + Navitoclax; first compound 0.3162 µM)	relative viability (Zosuquidar + Navitoclax; first compound 1 µM)	relative viability (Zosuquidar + AZD7762; first compound 0.01 µM)	relative viability (Zosuquidar + AZD7762; first compound 0.03162 µM)	relative viability (Zosuquidar + AZD7762; first compound 0.1 µM)	relative viability (Zosuquidar + AZD7762; first compound 0.3162 µM)	relative viability (Zosuquidar + AZD7762; first compound 1 µM)	relative viability (Kobe2602 + Palbociclib; first compound 0.2 µM)	relative viability (Kobe2602 + Palbociclib; first compound 0.6325 µM)	relative viability (Kobe2602 + Palbociclib; first compound 2 µM)	relative viability (Kobe2602 + Palbociclib; first compound 6.325 µM)	relative viability (Kobe2602 + Palbociclib; first compound 20 µM)	relative viability ([1]; first compound 0.02 µM)	relative viability ([1]; first compound 0.06325 µM)	relative viability ([1]; first compound 0.6325 µM)	relative viability ([1]; first compound 2 µM)	relative viability ([1]; first compound 0.2 µM)
NCI-H1395	1.11	1.08	1.12	1.28	1.15	0.398	0.373		0.409	0.429	0.636	0.69	0.638	0.589	0.647	0.796	0.779	0.756	0.719	0.794
NCI-H1437	1.08	1.1	1.06	1.15	1.15	1.19	1.16	1.14	1.03	1.19	0.308	0.306	0.299	0.337	0.257	0.413	0.454	0.428	0.347	0.411
NCI-H1651	0.949	0.987	1.05	0.977	1.01	0.459	0.476	0.415	0.403	0.384	0.528	0.52	0.521	0.524	0.518	0.861	0.739	0.706	0.48	0.754
NCI-H1666	0.906	1	1.03	1.02	0.818	0.852	0.979	0.752	0.826	0.862	0.644	0.628	0.596	0.647	0.619	0.628	0.644	0.619	0.673	0.622
NCI-H1734	0.922	0.925	0.754	0.862	0.787	0.526	0.515	0.563	0.599	0.514	0.364	0.412	0.325	0.607	0.334	0.292	0.284	0.286	0.214	0.275
NCI-H1755	0.988	1.01	0.954	1.07	0.949	0.399	0.461	0.398	0.497	0.436	0.457	0.467	0.484	0.459	0.465	0.673	0.666	0.529	0.539	0.618
NCI-H1793	0.407	0.444		0.499	0.396	0.519			0.516	0.692	0.326	0.318	0.304	0.31	0.293	0.663	0.427	0.257	0.169	0.271
NCI-H1915	0.756	0.79	0.796	0.802	0.743	0.714	0.699	0.613	0.816	0.756	0.512	0.558	0.578	0.536	0.57	0.46	0.447	0.435	0.416	0.471
NCI-H1944	1.06	1.02	1	1.18	0.945	0.496	0.565	0.479	0.62	0.511	0.351	0.343	0.311	0.333	0.371	0.275	0.274	0.257	0.238	0.238
NCI-H1975	1.13	1.14	1.17	1.14	0.993	0.675	0.744	0.661	0.788	0.791	0.668	0.599	0.613	0.544	0.631	0.761	0.78	0.435	0.295	0.699
NCI-H1993	0.966	0.978	0.896	1.1	0.802	0.692	0.781		0.858	0.908	0.679	0.543	0.48	0.589	0.525	0.546	0.625	0.572	0.542	0.565
NCI-H2085	1.13	1.06	1.06	1.2	1.14	0.983	1.04		1.03	0.99	0.506	0.481	0.508	0.489	0.418	0.87	0.852	0.655	0.527	0.818
NCI-H2087	0.968	0.994	0.965	1.18	1.08	1.22	1.39	1.32	1.41	1.26	0.202	0.258	0.21	0.297	0.237	0.271	0.24	0.248	0.204	0.225
NCI-H2126	0.79	0.845	0.741	0.889	0.845	1.03	1	0.911	1.04	1.01	0.379	0.357	0.343	0.346	0.35	0.865	0.937	0.814	0.848	0.816
NCI-H2170	0.651	0.626	0.557	0.673	0.571	0.866	0.916	0.776	0.898	0.858	0.429	0.388	0.375	0.392	0.393	0.738	0.8	0.748	0.734	0.733
NCI-H2347	0.891	0.686	0.583	0.931	0.944	0.701	0.811	0.564	0.808	0.764	0.422	0.435	0.403	0.438	0.421	0.572	0.526		0.392	0.575
